# Measured values: ChEMBL document CHEMBL3352253, “ApoE secretion modulating bromotyrosine derivative from the Australian marine sponge Callyspongia sp” (2014)
# Tested on: CCF-STTG1
# Test: Induction of apolipoprotein E secretion in human CCF-STTG1 cells at 40 uM after 96 hrs by ELSA relative to control
# Format: functional
structure (smiles),measurement,value
COc1c(Br)cc(CC(=O)C(=O)O)cc1Br,fold change (FC),1
